# Experimental data taken from US20050192279A1, “Pyridazinones as antagonists of alpha4 integrins” (priority 2004, published 2005).
# Key:
# TNBS induced colitis = assay: Trinitrobenzenesulfonic acid (TNBS) Induced Colitis, rats; type: in vivo, Male Wistar rats; details: 30 mg/kg po bid, rat
# From the text: In Vivo Model: Trinitrobenzenesulfonic acid (TNBS) Induced Colitis The TNBS model of experimental colitis (Bobin-Dubigeon, C., Collin, X., Grimaud, N., Robert, J-M., Guillaume Le Baut, G., and Petit, J-Y. Effects of tumour necrosis factor-a synthesis inhibitors on rat trinitrobenzene sulphonic acid-induced chronic colitis. Eur. J. […] These symptomatic signs in the above—mentioned models are similar to what occur in human colitis. Male Wistar rats (200-250 g) are inoculated with 500 microliters of a solution of 10 to 20 mg of TNBS in 30% ethanol delivered intracolonically via catheter or ball-tipped gavage needle to the 8th cm from the anus. When Balb/c female mice (8-12 weeks of age) were used, the inoculation volume was 50 microliters containing 2-3 mg of TNBS in 30% ethanol delivered intracolonically via catheter or ball-tipped gavage needle to the 4th cm from the anus. During the ensuing 7 days, test animals were administered a preparation of an experimental compound. This material may be administered orally, subcutaenously or intraperitoneally, once or twice daily. At the end of this period, the animals were euthanized and their colons were collected for further analysis. Among the parameters analyzed were the length of the colon starting from the anus to the top of the cecum, the weight of the colon, the consistency of any stools found within the colon, the presence or absence of intraperitoneal adhesions on the serosal surfacr of the intestin, and the gross macroscopic appearance of the colon. […] In rats, the distal colon between the 5th and the 8th centimeter is dissected and placed in 10% neutral buffered formalin for later histological analysis. In mice, the 1st to the 4th cm was collected for histological analyses. For the following parameters—colon length, colon weight, stool consistency and appearance and macroscopic damage—a scoring system was used to describe the changes. The four scores for each animal were added to provide a Total Score. […] For the presence of blood in stool, one point was added to scores <3. […] Histological analyses of tissues consisted of staining paraffin-embedded tissue sections with hematoxylin-eosin dye. Epithelial damage scores were determined as the fraction of the tissue section showing damaged epithelium. […] Statistic analyses for these experiments performed with Graphpad Prism 4.0, using ANOVA, with Dunnets or Bonferroni's multiple comparisons test.
# α4β1 = target: T1, α4β1 (Homo sapiens, UniProt P05556+P13612); assay: Ramos Cell Adhesion Assay (α4β1 Mediated Adhesion/VCAM-1); type: cell-based; details: Ramos cell adhesion to hVCAM-1; read-out: α4β1 IC50
# T1 construct: Ramos Cell Adhesion Assay (α4β1 Mediated Adhesion/VCAM-1); endogenous in cells; host or cells: Ramos cells
# Outline: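 Plates coated overnight at 4° C with recombinant hVCAM-1 at 4.0 μg/mL, pH 9.0, then blocked in PBS/1% BSA. Calcein AM-labeled Ramos cells added with compounds and left to adhere 1 h at room temperature; after washing, cells lysed in 1 M Tris pH 8.0/1% SDS.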
# human α4β7 integrin = target: T2, human α4β7 integrin (Homo sapiens, UniProt P13612+P26010); assay: α4β7-K562 Cell Adhesion Assay (α4β7 Mediated Adhesion/MAdCAM-1); type: cell-based; details: α4β7-K562 cell adhesion to hMAdCAM-1; read-out: α4β7 IC50
# T2 construct: expressed in transfected cells; host or cells: K562 cells, stably transfected
# T2 sequence (P13612 34-1032): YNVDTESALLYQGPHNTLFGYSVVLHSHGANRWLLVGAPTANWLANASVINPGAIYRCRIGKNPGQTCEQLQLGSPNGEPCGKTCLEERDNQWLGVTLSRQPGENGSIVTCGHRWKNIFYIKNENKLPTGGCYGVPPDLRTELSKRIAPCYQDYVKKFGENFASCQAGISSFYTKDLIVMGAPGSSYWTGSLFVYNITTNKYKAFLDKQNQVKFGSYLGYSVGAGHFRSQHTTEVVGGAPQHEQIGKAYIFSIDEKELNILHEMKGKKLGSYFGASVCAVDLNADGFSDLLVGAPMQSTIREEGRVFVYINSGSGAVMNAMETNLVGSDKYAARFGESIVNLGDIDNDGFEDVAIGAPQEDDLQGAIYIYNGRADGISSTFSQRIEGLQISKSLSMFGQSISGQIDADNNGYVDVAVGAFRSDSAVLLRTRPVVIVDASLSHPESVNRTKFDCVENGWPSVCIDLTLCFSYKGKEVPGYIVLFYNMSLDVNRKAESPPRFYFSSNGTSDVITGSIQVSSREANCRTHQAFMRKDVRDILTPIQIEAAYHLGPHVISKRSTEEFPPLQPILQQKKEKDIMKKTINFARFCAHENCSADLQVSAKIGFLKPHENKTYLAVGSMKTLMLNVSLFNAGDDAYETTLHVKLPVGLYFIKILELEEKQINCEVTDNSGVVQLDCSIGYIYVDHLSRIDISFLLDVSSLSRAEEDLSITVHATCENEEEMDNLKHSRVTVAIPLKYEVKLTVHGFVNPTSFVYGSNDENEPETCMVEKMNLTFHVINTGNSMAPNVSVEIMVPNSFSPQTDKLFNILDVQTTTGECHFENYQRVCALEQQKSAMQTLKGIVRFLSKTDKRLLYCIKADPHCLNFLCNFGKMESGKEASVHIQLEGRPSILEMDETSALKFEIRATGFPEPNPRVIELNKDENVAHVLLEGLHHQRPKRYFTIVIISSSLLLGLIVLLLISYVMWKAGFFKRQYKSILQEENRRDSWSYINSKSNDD
# T2 sequence (P26010 20-798): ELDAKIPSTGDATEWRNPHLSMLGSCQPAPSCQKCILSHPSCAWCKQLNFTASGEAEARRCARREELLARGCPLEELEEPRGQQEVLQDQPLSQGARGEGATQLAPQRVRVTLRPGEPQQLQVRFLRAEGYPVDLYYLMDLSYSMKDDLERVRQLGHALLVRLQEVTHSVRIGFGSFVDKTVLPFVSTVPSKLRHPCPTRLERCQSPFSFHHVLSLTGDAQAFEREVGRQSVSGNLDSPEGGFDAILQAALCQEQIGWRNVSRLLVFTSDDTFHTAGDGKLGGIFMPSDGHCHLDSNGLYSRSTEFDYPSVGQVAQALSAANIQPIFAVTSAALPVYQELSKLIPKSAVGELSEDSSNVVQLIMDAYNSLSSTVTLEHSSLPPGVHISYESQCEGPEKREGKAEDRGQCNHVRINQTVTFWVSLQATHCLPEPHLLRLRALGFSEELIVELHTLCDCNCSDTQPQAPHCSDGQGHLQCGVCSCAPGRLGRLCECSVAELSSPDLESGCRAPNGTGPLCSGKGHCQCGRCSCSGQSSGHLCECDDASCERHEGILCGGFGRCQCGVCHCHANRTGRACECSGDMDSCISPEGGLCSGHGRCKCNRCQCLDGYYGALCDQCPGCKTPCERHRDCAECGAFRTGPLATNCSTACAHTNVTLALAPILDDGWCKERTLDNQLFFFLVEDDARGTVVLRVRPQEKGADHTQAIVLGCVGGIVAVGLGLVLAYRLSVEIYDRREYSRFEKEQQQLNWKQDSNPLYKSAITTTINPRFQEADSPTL
# Outline: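 Anti-FLAG plates coated 1 h at 4° C with FLAG-hMAdCAM-1 in PBS pH 7.4, 1% BSA, 1 mM Mn2+. Stably transfected K562 cells expressing human α4β7, labelled with CFDA-SE, adhered with compound 1 h at room temperature. After four washes, bound cells lysed in 0.1 M NaOH for fluorescence read-out.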
# T1 sequence (P05556 21-798, one chain of several): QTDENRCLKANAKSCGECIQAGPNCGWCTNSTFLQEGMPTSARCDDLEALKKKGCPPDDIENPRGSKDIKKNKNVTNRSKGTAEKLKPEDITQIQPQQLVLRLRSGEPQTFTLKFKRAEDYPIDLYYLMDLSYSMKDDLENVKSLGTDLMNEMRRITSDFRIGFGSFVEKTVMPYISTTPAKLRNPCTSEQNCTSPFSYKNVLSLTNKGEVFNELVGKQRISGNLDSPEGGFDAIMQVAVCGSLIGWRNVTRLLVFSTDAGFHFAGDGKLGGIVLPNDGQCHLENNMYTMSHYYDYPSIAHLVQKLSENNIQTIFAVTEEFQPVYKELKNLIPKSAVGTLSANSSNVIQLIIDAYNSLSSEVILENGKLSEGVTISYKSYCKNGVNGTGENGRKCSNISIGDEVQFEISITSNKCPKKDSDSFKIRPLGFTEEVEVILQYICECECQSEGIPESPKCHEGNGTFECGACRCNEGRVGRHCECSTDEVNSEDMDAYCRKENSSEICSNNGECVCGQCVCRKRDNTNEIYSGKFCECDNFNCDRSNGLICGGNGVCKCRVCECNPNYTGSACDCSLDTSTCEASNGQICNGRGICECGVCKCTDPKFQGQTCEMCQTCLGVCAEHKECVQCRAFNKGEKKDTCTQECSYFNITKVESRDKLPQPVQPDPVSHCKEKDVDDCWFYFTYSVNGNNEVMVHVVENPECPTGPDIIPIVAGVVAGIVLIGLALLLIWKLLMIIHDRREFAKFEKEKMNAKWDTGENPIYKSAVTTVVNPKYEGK
SMILES,IC50 (α4β1) [µM],IC50 (human α4β7 integrin) [nM],% Inhibition of Epithelial Damage Score (TNBS induced colitis) [%],% Inhibition of Total Macroscopic Score (TNBS induced colitis) [%]
COc1cnn(C)c(=O)c1-c1ccc(C[C@H](NC(=O)c2cc(F)ccc2Cl)C(=O)OCCO)cc1 [Cpd 2],> 5,,10.25,−0.885
COc1cnn(C)c(=O)c1-c1ccc(C[C@H](NC(=O)OC2CCCCC2)C(=O)O)cc1 [Cpd 208],> 5,2760,,
COc1cnn(C)c(=O)c1-c1ccc(C[C@H](NC(=O)O[C@H](C)c2ccccc2)C(=O)O)cc1 [Cpd 209],> 5,3140,,
COc1cnn(CCN2CCOCC2)c(=O)c1-c1ccc(C[C@H](NC(=O)[C@H](N)C(C)C)C(=O)O)cc1 [Cpd 210],> 5,4650,,
"COc1cnn(C)c(=O)c1-c1ccc(CC(NC(=O)C(C(C)C)n2c(C)cc(C(=O)c3ccccc3)c2C)C(=O)O)cc1 (stereo not shown) [Cpd 211, 2-[2-(3-Benzoyl-2,5-dimethyl-pyrrol-1-yl)-3-methyl-butyrylamino]-[4-(5-methoxy-2-methyl-3-oxo-2,3-dihydro-pyridazin-4-yl)-phenyl]-propionic acid]",> 5,529,,
COc1cnn(CCO)c(=O)c1-c1ccc(C[C@H](NC(=O)OC(C)(C)C)C(=O)OCCO)cc1 [Cpd 212],> 5,> 5000,,
COc1cnn(C)c(=O)c1-c1ccc(C[C@H](NC(=O)NC2CCCCC2)C(=O)O)cc1 [Cpd 219],> 5,852,,
COc1cnn(C)c(=O)c1-c1ccc(C[C@H](NC(=O)C(C)(C)NC2CCC3(CC2)OCCO3)C(=O)O)cc1 [Cpd 220],> 5,263,,
COc1cnn(C)c(=O)c1-c1ccc(C[C@H](NC(=O)C2(NC(=O)OC(C)(C)C)CCCCC2)C(=O)O)cc1 [Cpd 222],> 5,401,,
COc1cnn(C)c(=O)c1-c1ccc(C[C@H](NC(=O)C2(NC(=O)OC(C)(C)C)CCCC2)C(=O)O)cc1 [Cpd 223],> 5,115,,
COc1cnn(C)c(=O)c1-c1ccc(C[C@H](NC(=O)C2(NC3CCC4(CC3)OCCO4)CC2)C(=O)O)cc1 [Cpd 224],> 5,14,,
COc1cnn(C)c(=O)c1-c1ccc(C[C@H](NC(=O)C2(NC3CCCC3)CC2)C(=O)O)cc1 [Cpd 225],0.472,13,,
COc1cnn(C)c(=O)c1-c1ccc(C[C@H](NC(=O)C2(NC(C)=O)CC2)C(=O)O)cc1 [Cpd 227],> 5,219,,
COc1cnn(CC(C)=O)c(=O)c1-c1ccc(C[C@H](NC(=O)c2c(Cl)cccc2Cl)C(=O)O)cc1 [Cpd 228],0.535,6,,

# Now from value to compound, other results behind:
IC50 (α4β1) [µM],IC50 (human α4β7 integrin) [nM],SMILES,% Inhibition of Epithelial Damage Score (TNBS induced colitis) [%],% Inhibition of Total Macroscopic Score (TNBS induced colitis) [%]
2.88,264,COc1cnn(C)c(=O)c1-c1ccc(CC(NC(=O)C(C(C)C)n2c(C)ccc2C)C(=O)O)cc1 (stereo not shown) [Cpd 213],,
1.07,23,COc1cnn(C)c(=O)c1-c1ccc(CC(NC(=O)C(C(C)C)n2c(C)ccc2C)C(=O)O)cc1 (stereo not shown) [Cpd 214],,
> 5,305,COc1cnn(C)c(=O)c1-c1ccc(CC(NC(=O)C(C(C)C)n2c(C)ccc2C)C(=O)O)cc1 (stereo not shown) [Cpd 215],,
> 5,640,COc1cnn(C)c(=O)c1-c1ccc(C[C@H](NC(=O)C2(O)CC2)C(=O)O)cc1 [Cpd 217],,
> 5,239,COc1cnn(C)c(=O)c1-c1ccc(C[C@H](NC(=O)C(C)(C)NC(C)C)C(=O)O)cc1 [Cpd 218],,
> 5,380,CNC(C)(C)C(=O)N[C@@H](Cc1ccc(-c2c(OC)cnn(C)c2=O)cc1)C(=O)O [Cpd 221],,
> 5,89,COc1cnn(C)c(=O)c1-c1ccc(C[C@H](NC(=O)C(C)(C)NC(N)=O)C(=O)O)cc1 [Cpd 229],,
